Test results from article PMC9852552, “Emission of floral volatiles is facilitated by cell-wall non-specific lipid transfer proteins” (Nature Communications, 2023).
“And” between values parts separate entries of the source, which are not always exact repeats. Equal values may be shown once.

Legend:
recombinant PhnsLTP2 = assay: TNS displacement assay with recombinant PhnsLTP2; type: binding, Petunia hybrida; conditions: for Kd: PhnsLTP2 1 µM, TNS 3 µM, non-linear fitting to Michaelis-Menten equation, means ± S.E., n = 3, read-out: dissociation constant Kd (PhnsLTP2); for Percentage fluorescence quenched (%): biological replicates 1-3, Supplementary Figure 17
Procedure: (§1) To directly test whether PhnsLTP3 can bind petunia VOCs, in vitro displacement assays were performed using the recombinant PhnsLTP3 protein and fluorescent 6-(p-toluidino)−2-naphthalenesulfonate (TNS) in the presence of petunia volatiles. […] TNS fluoresces strongly when bound to the hydrophobic regions of the protein, while it has weak fluorescence in an aqueous solution. […] Potential ligands of the protein will displace the bound TNS from the hydrophobic protein pocket into the aqueous environment leading to a decrease in the fluorescent signal, which was used to calculate the dissociation constant of the protein with ligand. […] To test whether PhnsLTP2 and PhnsLTP3 can bind other VOCs, we assayed the terpenoids: limonene, linalool, and nerolidol, as well as methyl jasmonate in TNS displacement assays. Both PhnsLTP2 and PhnsLTP3 were able to bind tested volatile compounds with Kds in the micromolar range (Supplementary Figs. 16 and 17).
(§2) The fluorescence-based-binding assays were performed largely according to previous publications[12],[52] with slight modifications. […] All mixtures were excited at 320 nm, and the fluorescence emission at 437 nm was recorded using a plate reader (SpectraMax iD3, Molecular Devices) at equilibrium after 5 min of incubation at 25 °C giving the background fluorescence Fmix0 and FTNS0 . The tested ligands dissolved in 2 µL DMSO were then added to the mixtures and TNS only to different final concentrations, and the fluorescence emissions were recorded at equilibrium after 5 min of incubation ( Fmixligand and FTNSligand ). To account for the change in the TNS fluorescence intensity upon adding the solvent DMSO, the background fluorescence of TNS ( FTNSsol ) as well as each PhnsLTP with TNS ( Fmixsol ) were measured. The ratios RTNS=FTNSsol/FTNS0 and Rmix=Fmixsol/Fmix0 were calculated to calibrate the fluorescence. Three measurements were taken for each concentration. The results were expressed as a percentage of fluorescence quenched Fmixligand/Rmix−FTNSligand/RTNS/Fmix0−FTNS0×100% . The corresponding dissociation constants kd were obtained by non-linear regression fitting of the binding kinetics to the Michaelis-Menten equation.
Supplementary Figure 16 | Binding kinetics of recombinant PhnsLTP2 with phenylpropanoids/benzenoids by petunia flowers, terpenoids and methyl jasmonate.
TNS displacement assays were performed at fixed concentrations of PhnsLTP2 (1 µM) and TNS (3 µM) and the fluorescence was measured before and after the tested compounds were added at various concentrations. The results are expressed as percentage of fluorescence quenched with respect to the concentration of added compound. The binding curves were obtained by non-linear fitting to the Michaelis-Menten equation (solid line in the graph) and the dissociation constants Kd [µM] were obtained. Phenylacetaldehyde, eugenol, and […]
corresponding binding curves. All data are means ±S.E. (n = 3 biological replicates).

recombinant PhnsLTP3 = assay: TNS displacement assay with recombinant PhnsLTP3; type: binding, Petunia hybrida; conditions: PhnsLTP3 1 µM, TNS 3 µM; for Kd: non-linear fitting to Michaelis-Menten equation (one binding site), means ± S.E., n = 3, read-out: dissociation constant Kd (PhnsLTP3); for Percentage fluorescence quenched: three biological replicates (c2-c4)
Procedure: as §1
Fig. 5 Binding kinetics of recombinant PhnsLTP3 with VOCs emitted by petunia flowers. TNS displacement assays were performed at fixed concentrations of PhnsLTP3 (1 µM) and TNS (3 µM) and the fluorescence was measured before and after the tested compounds were added at various concentrations. The results are expressed as percentage of fluorescence quenched with respect to the concentration of added compound. The binding curves were obtained by non-linear fitting to the Michaelis-Menten equation (solid line in the graph) and the dissociation constants Kd [µM] were obtained. […] All data are means ± S.E. (n = 3 biological replicates).
as §2
The binding curves of PhnsLTP3 with various VOC compounds were obtained by non-linear fitting to the one-binding-site (Eq. (1)) and two-binding-site (Eq. (2)) models. The equations assume that the ligand binds to multiple independent binding sites and that the binding to each site follows the law of mass action:1 %offluorescencequenched=Bmax×[TNS]/kd+[TNS] 2 %offluorescencequenched=Bmax1×[TNS]/kd1+[TNS]+Bmax2×[TNS]/kd2+[TNS] […]
PhnsL TP3 (1 µ M)and TNS (3 µ M)and the fluorescence was measured before and after the tested compounds were added at various concentrations. The results are expressed as percentage of fluorescence quenched with respect to the concentration of added compound.
The binding curves were obtained by non-linear fitting to the Michaelis-Menten equation (solid line in the graph) and the dissociation constants Kd [µ M]were obtained. All data are means ±S.E. (n = 3 biological replicates).
Supplementary Figure 25 | Analysis of number of binding sites of PhnsLTP3.
TNS displacement assay was performed at fixed concentrations of PhnsLTP3 (1 µM) and TNS (3 µM) and the fluorescence was measured before and after methyl […]

petunia flowers = assay: Phenylalanine feeding: total VOC emission and total pools; type: in vivo, Petunia hybrida; conditions: for Total pools / Total emission: biological replicates 1-3; for absolute increase over 2 h in VOC emission rate upon Phe feeding: 150 mM Phe, 19:00 to 22:00 h
From the text: Such reduction in VOC emission could be the result of diminished VOC transport across the cell wall, decreased VOC biosynthesis or both. […] Recently, we have shown that the VOC redistribution and reduction of their levels in the cuticle decrease their release from the cell and reduce carbon flux to Phe, which is the precursor for petunia VOCs[8]. […] Thus, to distinguish between the contribution of VOC transport and Phe limitation in VOC biosynthesis, control and PhnsLTP3-RNAi-R5 flowers were fed with Phe, and total VOC emission and total pools were measured from 19:00 to 22:00 h (Supplementary Fig. 20).
Floral volatile emission was analyzed by dynamic headspace collection of volatiles at 25 °C on columns containing 20 mg Porapak Q (80–100 mesh) (Sigma-Aldrich) and analyzed on an Agilent 6890N-5975B GC–MS system as described previously[7],[8],[43] with minor modifications. Briefly, emitted volatiles were collected from detached transgenic and wild-type flowers from 19:00 to 22:00 h on day 2 postanthesis. Adsorbed volatiles were eluted from collection columns with 280 μL dichloromethane containing 52 nmol of naphthalene as the internal standard. For analysis of total petal pools, 0.5 g of petal tissue from transgenic and control plants was collected at 22:00 h on day 2 postanthesis, ground to a fine powder in liquid nitrogen, and total petal pools were extracted in 5 mL of dichloromethane containing 52 nmol of internal standard (naphthalene) for 12 h at −20 °C. Samples were then warmed up, vortexed and concentrated to 200 μL under a stream of nitrogen gas before injection into GC–MS (Agilent 6890N-5975B). All GC–MS data were collected and analyzed using Agilent MSD ChemStation F.01.03.2357 software. For phenylalanine feeding, flowers from wild type and PhnsLTP3-RNAi were harvested and placed in 150 mM of phenylalanine solution. Emitted volatiles and their total petal pools were sampled every hour from 16:00 till 19:00 h and from 19:00 till 22:00 h and analyzed as described above.
Supplementary Figure 20 | Total VOC emission and their total pools in control and PhnsLTP3-RNAi petunia flowers fed with 150 mM Phe. Total VOC emission (a) and total pools (b) in wild-type (WT) and PhnsLTP3-RNAi-R5 line fed with 150 mM Phe from 19:00 to 22:00 h. Data are means ± S.E. (n = 3 biological replicates). […]
determined by two-way ANOV Awith P = 0.0086. […]

C=CC(C)(O)CCC=C(C)CCC=C(C)C (mixture of isomers) [Nerolidol]
Kd (recombinant PhnsLTP2): 21.4 ± 4.5 µM
Percentage fluorescence quenched (%) (recombinant PhnsLTP2; VOC concentration 30 µM): 79.85% and 81.10% and 78.83%
Kd (recombinant PhnsLTP3): 2.4 ± 0.4 µM

OCCc1ccccc1 [2-Phenylethanol]
Kd (recombinant PhnsLTP3): 395 ± 131 µM
Percentage fluorescence quenched (recombinant PhnsLTP3; VOC concentration 3 µM): 8.20% and 0.13% and 7.39%
Percentage fluorescence quenched (recombinant PhnsLTP3; VOC concentration 30 µM): 14.26% and 5.61% and 8.61%
Percentage fluorescence quenched (recombinant PhnsLTP3; VOC concentration 300 µM): 15.48% and 18.99% and 19.97%
Percentage fluorescence quenched (recombinant PhnsLTP3; VOC concentration 1500 µM): 39.03% and 34.28% and 33.24%
Percentage fluorescence quenched (recombinant PhnsLTP3; VOC concentration 3000 µM): 41.03% and 32.70% and 40.07%

O=Cc1ccccc1 [Benzaldehyde]
Kd (recombinant PhnsLTP2): 344 ± 80.7 µM
Kd (recombinant PhnsLTP3): 276 ± 59.8 µM
Percentage fluorescence quenched (recombinant PhnsLTP3; VOC concentration 3 µM): 3.47% and 6.56% and 12.79%
Percentage fluorescence quenched (recombinant PhnsLTP3; VOC concentration 30 µM): 19.94% and 11.97% and 16.71%
Percentage fluorescence quenched (recombinant PhnsLTP3; VOC concentration 300 µM): 45.75% and 56.38% and 51.72%
Percentage fluorescence quenched (recombinant PhnsLTP3; VOC concentration 1500 µM): 74.25% and 79.55% and 80.00%
Percentage fluorescence quenched (recombinant PhnsLTP3; VOC concentration 3000 µM): 86.84% and 86.38% and 86.21%

OCc1ccccc1 [Benzyl alcohol]
Kd (recombinant PhnsLTP2): 399 ± 261 µM
Kd (recombinant PhnsLTP3): 208 ± 74.2 µM
Percentage fluorescence quenched (recombinant PhnsLTP3; VOC concentration 30 µM): 3.06% and 3.64% and 9.84%
Percentage fluorescence quenched (recombinant PhnsLTP3; VOC concentration 300 µM): 23.75% and 24.96% and 17.77%
Percentage fluorescence quenched (recombinant PhnsLTP3; VOC concentration 1500 µM): 32.13% and 29.61% and 29.01%
Percentage fluorescence quenched (recombinant PhnsLTP3; VOC concentration 3000 µM): 34.41% and 38.89% and 34.26%

O=C(OCc1ccccc1)c1ccccc1 [Benzylbenzoate]
Kd (recombinant PhnsLTP2): 21.8 ± 8.8 µM
Kd (recombinant PhnsLTP3): 6.5 ± 2.7 µM
Percentage fluorescence quenched (recombinant PhnsLTP3; VOC concentration 1 µM): 31.47% and 9.59% and 36.79%
Percentage fluorescence quenched (recombinant PhnsLTP3; VOC concentration 3 µM): 33.25% and 16.42% and 33.70%
Percentage fluorescence quenched (recombinant PhnsLTP3; VOC concentration 5 µM): 25.37% and 28.56% and 39.27%
Percentage fluorescence quenched (recombinant PhnsLTP3; VOC concentration 12 µM): 59.42% and 53.23% and 61.87%
Percentage fluorescence quenched (recombinant PhnsLTP3; VOC concentration 30 µM): 72.95% and 50.76% and 70.40%

C=C(C)[C@H]1CC=C(C)CC1 [Limonene]
Kd (recombinant PhnsLTP2): 126 ± 43.6 µM
Kd (recombinant PhnsLTP3): 26.7 ± 14.2 µM

C=CC(C)(O)CCC=C(C)C (stereo not shown) [Linalool]
Kd (recombinant PhnsLTP2): 501 ± 35.8 µM
Kd (recombinant PhnsLTP3): 299 ± 52.4 µM

CC/C=C\CC1C(=O)CCC1CC(=O)OC (stereo not shown) [Methyl jasmonate]
Kd (recombinant PhnsLTP2): 184 ± 96.5 µM
Percentage fluorescence quenched (%) (recombinant PhnsLTP2; VOC concentration 1500 µM): 75.75% and 76.43% and 72.92%
Kd (recombinant PhnsLTP3): 253 ± 112 µM

N[C@@H](Cc1ccccc1)C(=O)O [Phe, L-phenylalanine]
Total pools (petunia flowers; PhLTP3-RNAi-5 + Phe, 19:00 h): 440.17 nmol g FW-1 and 381.25 nmol g FW-1 and 288.77 nmol g FW-1
Total emission (petunia flowers; PhLTP3-RNAi-5 + Phe, 20:00 h): 837.22 nmol g FW-1 h-1 and 1059.64 nmol g FW-1 h-1 and 828.44 nmol g FW-1 h-1
Total pools (petunia flowers; PhLTP3-RNAi-5 + Phe, 20:00 h): 756.94 nmol g FW-1 and 1050.75 nmol g FW-1 and 883.29 nmol g FW-1
Total emission (petunia flowers; PhLTP3-RNAi-5 + Phe, 21:00 h): 2356.48 nmol g FW-1 h-1 and 1887.30 nmol g FW-1 h-1 and 1311.64 nmol g FW-1 h-1
Total pools (petunia flowers; PhLTP3-RNAi-5 + Phe, 21:00 h): 1249.12 nmol g FW-1 and 1300.32 nmol g FW-1 and 829.02 nmol g FW-1
Total emission (petunia flowers; PhLTP3-RNAi-5 + Phe, 22:00 h): 2845.33 nmol g FW-1 h-1 and 2241.14 nmol g FW-1 h-1 and 2347.25 nmol g FW-1 h-1
Total pools (petunia flowers; PhLTP3-RNAi-5 + Phe, 22:00 h): 913.29 nmol g FW-1 and 1187.03 nmol g FW-1 and 1389.76 nmol g FW-1
absolute increase over 2 h in VOC emission rate upon Phe feeding (petunia flowers; PhnsLTP3-RNAi-R5 flowers): 1569 ± 76 nmol g FW^−1
Total pools (petunia flowers; WT + Phe, 19:00 h): 363.34 nmol g FW-1 and 564.43 nmol g FW-1 and 340.47 nmol g FW-1
Total emission (petunia flowers; WT + Phe, 20:00 h): 1481.84 nmol g FW-1 h-1 and 2333.99 nmol g FW-1 h-1 and 1404.14 nmol g FW-1 h-1
Total pools (petunia flowers; WT + Phe, 20:00 h): 885.56 nmol g FW-1 and 1126.01 nmol g FW-1 and 1295.32 nmol g FW-1
Total emission (petunia flowers; WT + Phe, 21:00 h): 1814.62 nmol g FW-1 h-1 and 2602.15 nmol g FW-1 h-1 and 2554.66 nmol g FW-1 h-1
Total pools (petunia flowers; WT + Phe, 21:00 h): 1190.78 nmol g FW-1 and 1426.22 nmol g FW-1 and 956.14 nmol g FW-1
Total emission (petunia flowers; WT + Phe, 22:00 h): 3087.41 nmol g FW-1 h-1 and 2626.99 nmol g FW-1 h-1 and 3838.92 nmol g FW-1 h-1
Total pools (petunia flowers; WT + Phe, 22:00 h): 1455.77 nmol g FW-1 and 972.77 nmol g FW-1 and 1086.37 nmol g FW-1
absolute increase over 2 h in VOC emission rate upon Phe feeding (petunia flowers; wild-type flowers): 1444 ± 298 nmol g FW^−1
